Where two headings read alike, the source gives them in different places. One block for each molecule: values may come before it.
Tests used:
[1] = target: T1, topoisomerase II (Homo sapiens, UniProt P11388); test: Topoisomerase II drug screening kit (relaxation of plasmid DNA); assay type: biochemical; parameters: key to Topoisomerase II Inhibition: — none; + low; ++ moderate; +++ strong; conditions: for Topoisomerase II Inhibition: 100 μM drug compound, topoisomerase II (4U), 500 ng plasmid DNA; for inhibition of topoisomerase II catalytic activity (in words): 100 μM makaluvamine derivative
T1 construct: purchased TopoGEN, Inc., Port Orange, Fla
Description: In order to determine the effect of the makaluvamine derivatives of the present disclosure, the synthesized makaluvamine derivatives were screened for their ability to inhibit topoisomerase II activity in vitro. Topoisomerase II functions by generating a double-stranded DNA break followed by resealing of the break. Topoisomerase II inhibitors interfere with the breakage-rejoining reaction thereby trapping the enzyme in a cleavage complex. In order to determine if the disclosed makaluvamine derivatives inhibited topoisomerase II activity, nine of the derivatives were tested for topoisomerase II inhibitory activity using a topoisomerase-II drug screening kit (TopoGEN, Inc., Port Orange, Fla.) according to the manufacturer's instructions. The screening kit uses a supercoiled plasmid DNA substrate (pRYG) which contains one topoisomerase II cleavage/recognition site. […] Relaxed DNA was separated using non-ethidium bromide (EtBr) agarose gels, then stained with EtBr and quantified using Kodak Gel Logic Imaging System and Molecular Imaging software (Eastman Kodak Co., Rochester, N.Y.). Inhibition of relaxation of plasmid DNA or catalytic activity was reported as; − none, + low, ++ moderate, or +++ strong.

[2] = system: HCT-116; test: XTT cytotoxicity assay; assay type: cell-based, human; conditions: average ± standard deviation of 2-4 independent assays, read-out: Inhibition of Cancer Cell Proliferation (IC50) HCT-116
Protocol: (§1) In initial experiments, compounds 4a-g and 7c-g were evaluated for their cytotoxicity against human breast cancer cell lines MCF-7 and MDA-MB-468 and human colon cancer cell line HCT-116. The makaluvamine compounds provided in Table 2 were also evaluated for their cytotoxicity against human breast cancer cell lines MCF-7. Compound nos. 8 and 27-33 were not evaluated in this experiment. Cells were obtained from ATCC (Manassas, Va.). For each derivative the IC50 value was determined using data generated from 2-4 independent tetrazolium-based (XTT) cytotoxicity assays (R & D Systems Inc., Minneapolis, Minn.) according to the manufacturer's instructions. […] MCF-7, MDA-MD-468 and HCT-116 cells were grown at 37 degrees C. in a humidified atmosphere with complete growth media supplemented with fetal bovine serum. Growth media was changed 2-3 times per week as required.

[3] = system: MDA-MB-468; test: XTT cytotoxicity assay; assay type: cell-based, human; conditions: average ± standard deviation of 2-4 independent assays, read-out: Inhibition of Cancer Cell Proliferation (IC50) MDA-MB-468
Protocol: as §1

[4] = system: MCF-7; test: XTT cytotoxicity assay; assay type: cell-based, human; conditions: XTT; average ± standard deviation of 2-4 independent assays; read-out: Inhibition of Cancer Cell Proliferation (IC50) MCF-7
Protocol: as §1

[5] = system: RXF 393; test: NCI60 cell line screen (SRB); assay type: cell-based, human; conditions: RXF 393, Renal Cancer, 48 h
Protocol: (§2) This panel implements the NCI60 cell line screen, including leukemia, non-small cell lung cancer, colon cancer, central nervous system cancer, melanoma, ovarian cancer, renal cancer, prostate cancer and breast cancer. The cell lines tested are specified in Table 3.
(§3) Generally, the human tumor cell lines of the cancer screening panel are grown in RPMI 1640 medium containing 5% fetal bovine serum and 2 mM L-glutamine. For a typical screening experiment, cells are inoculated into 96 well microtiter plates in 100 μL at plating densities ranging from 5,000 to 40,000 cells/well depending on the doubling time of individual cell lines. After cell inoculation, the microtiter plates are incubated at 37° C., 5% CO2, 95% air and 100% relative humidity for 24 h prior to addition of experimental drugs. After 24 h, two plates of each cell line are fixed in situ with TCA, to represent a measurement of the cell population for each cell line at the time of drug addition (Tz). Experimental drugs are solubilized in dimethyl sulfoxide at 400-fold the desired final maximum test concentration and stored frozen prior to use. At the time of drug addition, an aliquot of frozen concentrate is thawed and diluted to twice the desired final maximum test concentration with complete medium containing 50 μg/ml gentamicin. Additional four, 10-fold or ½ log serial dilutions are made to provide a total of five drug concentrations plus control. Aliquots of 100 μl of these different drug dilutions are added to the appropriate microtiter wells already containing 100 μl of medium, resulting in the required final drug concentrations.
(§4) Following drug addition, the plates are incubated for an additional 48 h at 37° C., 5% CO2, 95% air, and 100% relative humidity. For adherent cells, the assay is terminated by the addition of cold TCA. Cells are fixed in situ by the gentle addition of 50 μl of cold 50% (w/v) TCA (final concentration, 10% TCA) and incubated for 60 minutes at 4° C. The supernatant is discarded, and the plates are washed five times with tap water and air dried. Sulforhodamine B (SRB) solution (100 μl) at 0.4% (w/v) in 1% acetic acid is added to each well, and plates are incubated for 10 minutes at room temperature. After staining, unbound dye is removed by washing five times with 1% acetic acid and the plates are air dried. Bound stain is subsequently solubilized with 10 mM trizma base, and the absorbance is read on an automated plate reader at a wavelength of 515 nm. For suspension cells, the methodology is the same except that the assay is terminated by fixing settled cells at the bottom of the wells by gently adding 50 μl of 80% TCA (final concentration, 16% TCA). Using the seven absorbance measurements (time zero, Tz, control growth, (control), and test growth in the presence of drug at the five concentration levels (Ti)), the percentage growth is calculated at each of the drug concentrations levels. Percentage growth inhibition is calculated as:
(§5) [(Ti−Tz)/(C−Tz)]×100 for concentrations for which Ti>/=Tz
(§6) [(Ti−Tz)/Tz]×100 for concentrations for which Ti<Tz.

[6] = system: NCIH332M; test: NCI60 cell line screen (SRB); assay type: cell-based, human; conditions: Non-Small Cell Lung Cancer, 48 h
Protocol: as §2, §3, §4, §5, §6

[7] = system: SF-295; test: NCI60 cell line screen (SRB); assay type: cell-based, human; conditions: SF-295, CNS Cancer, 48 h
Protocol: as §2, §3, §4, §5, §6

[8] = system: SK-MEL-2; test: NCI60 cell line screen (SRB); assay type: cell-based, human; conditions: SK-MEL-2, Melanoma, 48 h
Protocol: as §2, §3, §4, §5, §6

[9] = system: A549/ATCC; test: NCI60 cell line screen (SRB); assay type: cell-based, human; conditions: Non-Small Cell Lung Cancer, 48 h
Protocol: as §2, §3, §4, §5, §6

[10] = system: MALME-3M; test: NCI60 cell line screen (SRB); assay type: cell-based, human; conditions: Melanoma, 48 h
Protocol: as §2, §3, §4, §5, §6

[11] = system: HL-60; test: NCI60 cell line screen (SRB); assay type: cell-based, human; conditions: HL-60, Leukemia, 48 h
Protocol: as §2, §3, §4, §5, §6

[12] = system: NCI/ADR-RES; test: NCI60 cell line screen (SRB); assay type: cell-based, human; conditions: Breast Cancer, 48 h
Protocol: as §2, §3, §4, §5, §6

[13] = system: U87MG; test: MTT growth inhibition assay; assay type: cell-based, human; conditions: cancer cell, 72 hr, read-out: Growth inhibitory activity (IC50)

T1 sequence (P11388 whole entry): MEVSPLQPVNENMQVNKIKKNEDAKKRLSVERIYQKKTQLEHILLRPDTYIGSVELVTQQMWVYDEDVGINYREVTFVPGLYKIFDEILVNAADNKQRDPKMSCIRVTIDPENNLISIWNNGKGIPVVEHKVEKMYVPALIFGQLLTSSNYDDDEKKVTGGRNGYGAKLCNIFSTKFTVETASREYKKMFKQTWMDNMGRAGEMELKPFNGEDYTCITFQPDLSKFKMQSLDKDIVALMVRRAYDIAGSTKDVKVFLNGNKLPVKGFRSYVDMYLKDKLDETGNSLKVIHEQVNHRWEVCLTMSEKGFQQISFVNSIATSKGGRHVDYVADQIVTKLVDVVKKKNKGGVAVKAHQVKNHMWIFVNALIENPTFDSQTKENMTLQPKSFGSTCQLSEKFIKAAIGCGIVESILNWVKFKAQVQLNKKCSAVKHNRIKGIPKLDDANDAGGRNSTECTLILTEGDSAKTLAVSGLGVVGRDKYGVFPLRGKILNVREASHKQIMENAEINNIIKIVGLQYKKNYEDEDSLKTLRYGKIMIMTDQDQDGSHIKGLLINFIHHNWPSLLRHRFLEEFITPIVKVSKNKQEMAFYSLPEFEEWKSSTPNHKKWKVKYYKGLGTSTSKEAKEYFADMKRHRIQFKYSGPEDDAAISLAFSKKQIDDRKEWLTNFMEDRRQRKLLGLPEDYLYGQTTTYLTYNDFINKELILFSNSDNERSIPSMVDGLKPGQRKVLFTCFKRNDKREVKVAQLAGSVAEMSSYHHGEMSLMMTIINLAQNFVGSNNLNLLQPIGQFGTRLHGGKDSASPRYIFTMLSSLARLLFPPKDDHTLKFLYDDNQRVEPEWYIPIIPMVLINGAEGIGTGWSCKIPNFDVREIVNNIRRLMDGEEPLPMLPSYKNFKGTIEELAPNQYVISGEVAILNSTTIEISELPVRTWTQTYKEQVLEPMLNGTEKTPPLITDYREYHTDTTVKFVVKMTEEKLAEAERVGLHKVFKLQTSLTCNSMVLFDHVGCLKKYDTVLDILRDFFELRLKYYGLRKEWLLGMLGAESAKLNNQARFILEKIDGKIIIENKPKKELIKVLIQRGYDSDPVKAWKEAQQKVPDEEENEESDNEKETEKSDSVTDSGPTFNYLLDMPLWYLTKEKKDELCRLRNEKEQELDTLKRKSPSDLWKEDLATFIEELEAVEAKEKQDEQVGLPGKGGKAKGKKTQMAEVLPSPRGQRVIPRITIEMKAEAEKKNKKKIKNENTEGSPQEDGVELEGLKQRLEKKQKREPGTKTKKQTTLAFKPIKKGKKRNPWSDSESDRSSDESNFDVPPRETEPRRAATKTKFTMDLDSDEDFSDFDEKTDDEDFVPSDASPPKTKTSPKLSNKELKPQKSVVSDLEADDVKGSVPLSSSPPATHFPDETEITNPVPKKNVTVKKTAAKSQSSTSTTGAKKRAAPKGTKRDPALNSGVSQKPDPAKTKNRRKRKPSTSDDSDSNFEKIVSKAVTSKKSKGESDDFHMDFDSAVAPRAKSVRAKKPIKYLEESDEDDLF

Topoisomerase II Inhibition [1]: —
Compound: CNC1=CC2=NCCc3c[nH]c(c32)C1=O [Compound 4a]
IC50 [2]: 2500 ± 1300 nM | IC50 [3]: 400 ± 50 nM | IC50 [4]: 1300 ± 100 nM | GI50 [5]: 4220 nM | GI50 [6]: 2890 nM | GI50 [7]: 1210 nM | GI50 [8]: 1670 nM | GI50 [9]: 2780 nM | GI50 [10]: 1210 nM | GI50 [11]: 2540 nM | GI50 [12]: 9330 nM

Compound: COc1ccc(CCNC2=CC3=NCCc4c[nH]c(c43)C2=O)cc1OC.O=C(O)C(F)(F)F [Compound 20]
IC50 ([13]; Homo sapiens, U-87 MG): 3040 nM | GI50 ([6]; Homo sapiens, NCI-H332M): 2840 nM | GI50 ([7]; Homo sapiens): 1840 nM | GI50 ([8]; Homo sapiens): 730 nM | GI50 ([9]; Homo sapiens): 2720 nM | GI50 ([10]; Homo sapiens): 249 nM | GI50 ([11]; Homo sapiens): 3140 nM | GI50 ([12]; Homo sapiens): 12400 nM

Compound: O=C(O)C(F)(F)F.O=C1C(NCCc2ccc3c(c2)OCO3)=CC2=NCCc3c[nH]c1c32 [Compound 6]
IC50 ([13]; Homo sapiens, U-87 MG): 5640 nM | GI50 ([6]; Homo sapiens, NCI-H332M): 2820 nM | GI50 ([7]; Homo sapiens): 1870 nM | GI50 ([8]; Homo sapiens): 5820 nM | GI50 ([10]; Homo sapiens): 343 nM | GI50 ([11]; Homo sapiens): 1920 nM | GI50 ([12]; Homo sapiens): 1760 nM

Compound: O=C(O)C(F)(F)F.O=C1C(NCc2ccc(F)cc2)=CC2=NCCc3c[nH]c1c32 [Compound 28]
IC50 ([13]; Homo sapiens, U-87 MG): 1710 nM | GI50 ([5]; Homo sapiens): ≤ 10 nM | GI50 ([6]; Homo sapiens, NCI-H332M): 1170 nM | GI50 ([7]; Homo sapiens): 1060 nM | GI50 ([8]; Homo sapiens): 4530 nM | GI50 ([9]; Homo sapiens): 1440 nM | GI50 ([10]; Homo sapiens): 208 nM | GI50 ([11]; Homo sapiens): 1530 nM | GI50 ([12]; Homo sapiens): 3110 nM

Compound: O=C1C(NCCc2ccccc2)=CC2=NCCc3c[nH]c1c32 [Compound 4d]
Topoisomerase II Inhibition [1]: + | inhibition of topoisomerase II catalytic activity (in words) [1]: comparable to etoposide and m-AMSA | IC50 [2]: 3900 ± 1200 nM | IC50 [3]: 300 nM | IC50 [4]: 1700 ± 500 nM | IC50 [13]: 4280 nM

Compound: O=C1C(NCc2ccccc2)=CC2=NCCc3c[nH]c1c32 [Compound 4c]
Topoisomerase II Inhibition [1]: ++ | inhibition of topoisomerase II catalytic activity (in words) [1]: comparable to etoposide and m-AMSA | IC50 [2]: 1300 ± 200 nM | IC50 [3]: 300 nM | IC50 [4]: 1000 nM | IC50 [13]: 2880 nM | GI50 [5]: 2090 nM | GI50 [6]: 628 nM | GI50 [7]: 1120 nM | GI50 [8]: 5200 nM | GI50 [9]: 2140 nM | GI50 [10]: 300 nM | GI50 [11]: 325 nM | GI50 [12]: 3510 nM
